The results in this text go back to PMC11500159, “Synthesis, α-Glucosidase, α-Amylase, and Aldol Reductase Inhibitory Activity with Molecular Docking Study of Novel Imidazo[1,2-a]pyridine Derivatives” (ACS Omega, 2024).

The target in series [1] is aldose reductase (AR) (Homo sapiens, UniProt P15121). The series can be described thus: AR inhibitory activity (NADPH consumption, absorbance at 340 nm). In kind it is biochemical. To be noted: Lineweaver-Burk curves; mean ± SEM. How it is done: The activity was assessed using methods that were modified from previously established protocols.[48],[49] The inhibitory activity of AR was assessed by measuring the reduction in absorbance at 340 nm due to the consumption of NADPH. […] The IC50 of the derivatives was calculated from Activity (%) – [inhibitor] graphs for derivatives.

Series [2] deals with α-glycosidase (α-GLY) (Saccharomyces cerevisiae, UniProt P53341). Kind of series: α-GLY inhibitory activity (para-nitrophenyl-α-D-glucopyranoside substrate). It is filed as biochemical. Particulars: Lineweaver-Burk curves; for Ki: mean ± SEM. How it is done:
In this analysis, a unit of α-GLY activity is defined as the amount of enzyme required to catalyze the hydrolysis of […] of substrate per minute at a standard pH of 7.4.
(§1) The inhibition effects of the novel imidazo[1,2-a]pyridine-based 1,3,4-thiadiazole derivatives were determined with different inhibitor concentrations (at least five) against AR, α-GLY, and α-AMY. The IC50 of the derivatives was calculated from Activity (%) – [inhibitor] graphs for derivatives. The inhibition types and KI values were found by Lineweaver and Burk’s curves.[50],[51]

In series [3] the target is T1, α-amylase (α-AMY) (Homo sapiens, UniProt P04746).
T1 sequence (P04746 16-511): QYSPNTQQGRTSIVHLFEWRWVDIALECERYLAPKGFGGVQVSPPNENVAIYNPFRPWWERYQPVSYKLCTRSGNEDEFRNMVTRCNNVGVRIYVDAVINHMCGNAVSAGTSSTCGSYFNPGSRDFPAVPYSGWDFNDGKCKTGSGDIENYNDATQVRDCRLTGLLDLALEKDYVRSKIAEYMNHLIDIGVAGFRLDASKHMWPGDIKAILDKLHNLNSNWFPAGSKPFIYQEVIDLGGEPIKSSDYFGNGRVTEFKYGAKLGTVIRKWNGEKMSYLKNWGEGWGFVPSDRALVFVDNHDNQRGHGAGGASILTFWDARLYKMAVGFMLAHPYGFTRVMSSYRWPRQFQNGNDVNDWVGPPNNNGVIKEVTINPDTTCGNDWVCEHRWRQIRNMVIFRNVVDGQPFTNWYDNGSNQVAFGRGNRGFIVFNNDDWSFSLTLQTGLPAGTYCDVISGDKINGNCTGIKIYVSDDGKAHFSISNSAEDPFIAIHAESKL
Kind of series: α-AMY inhibitory activity (starch-iodine method, absorbance at 580 nm). In kind it is biochemical. Particulars: from Activity (%) - [inhibitor] graphs. The procedure: The assay involved preparing a substrate solution of starch in NaOH, adjusting the pH with HCl, and diluting the solution to volume. Enzyme and sample solutions were preincubated, mixed with the substrate, and incubated again. The reaction was stopped with HCl, and the absorbance was measured at 580 nm.
as §1

Sequence of α-glycosidase (α-GLY) (P53341 whole entry): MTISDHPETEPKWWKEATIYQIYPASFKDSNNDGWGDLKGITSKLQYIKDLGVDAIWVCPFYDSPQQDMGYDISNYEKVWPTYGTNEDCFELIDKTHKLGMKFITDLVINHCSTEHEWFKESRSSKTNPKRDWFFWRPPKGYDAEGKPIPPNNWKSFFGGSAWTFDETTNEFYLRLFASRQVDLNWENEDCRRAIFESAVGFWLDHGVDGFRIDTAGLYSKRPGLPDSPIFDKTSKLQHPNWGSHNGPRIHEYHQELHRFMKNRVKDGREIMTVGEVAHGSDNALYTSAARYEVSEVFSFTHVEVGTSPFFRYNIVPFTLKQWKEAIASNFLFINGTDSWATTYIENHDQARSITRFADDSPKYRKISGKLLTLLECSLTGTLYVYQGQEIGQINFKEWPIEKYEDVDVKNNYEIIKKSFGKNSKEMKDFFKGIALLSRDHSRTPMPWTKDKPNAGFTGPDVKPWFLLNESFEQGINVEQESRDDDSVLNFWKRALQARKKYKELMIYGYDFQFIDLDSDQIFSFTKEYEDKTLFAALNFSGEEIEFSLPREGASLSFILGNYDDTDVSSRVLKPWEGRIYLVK

As for `O=C(CSc1nnc(Nc2ccccc2)s1)Nc1ccc(-c2cn3ccccc3n2)cc1` [8a, 2-[(5-Phenylamino-1,3,4-thiadiazol-2-yl)thio]-N-[4-(imidazo[1,2-a]pyridin-2-yl)phenyl] Acetamide], the Ki – broadly, a measure of affinity in units of concentration, obtained from inhibition or displacement – came to 0.0349 ± 0.00359 µM in series [1] and 33 ± 1.25 µM in series [2]. Further, inhibition in series [3] was half-maximal at 142 µM (IC50).

As for `CCc1ccc(Nc2nnc(SCC(=O)Nc3ccc(-c4cn5ccccc5n4)cc3)s2)cc1` [8b, 2-[(5-(4-Ethylphenyl)amino-1,3,4-thiadiazol-2-yl)thio]-N-[4-(imidazo[1,2-a]pyridin-2-yl)phenyl]acetamide], the melting point – broadly, the temperature of the solid-liquid transition – is 244.2 °C. The α-GLY inhibition type entry in series [2] is reported as “noncompetitive inhibition”. In series [3], the IC50 (in general, the concentration at which inhibition is half-maximal) was found to be 113 µM.

In the case of `O=C(CSc1nnc(NC2CCCCC2)s1)Nc1ccc(-c2cn3ccccc3n2)cc1` [8c, 2-[(5-Cyclohexylamino-1,3,4-thiadiazol-2-yl)thio]-N-[4-(imidazo[1,2-a]pyridin-2-yl)phenyl] Acetamide], the Ki in series [1] was found to be 0.14 ± 0.0133 µM; in series [2], 77.5 ± 5.74 µM.

On to `CCNc1nnc(SCC(=O)Nc2ccc(-c3cn4ccccc4n3)cc2)s1` [8d, 2-[(5-Ethylamino-1,3,4-thiadiazol-2-yl)thio]-N-[4-(imidazo[1,2-a]pyridin-2-yl)phenyl] Acetamide], for which the values for the Ki in series [1] and in series [2] were 0.0785 ± 0.00824 µM and 88.7 ± 17.7 µM, respectively. This compound had an IC50 in series [3] of 122 µM.

Turning to `Cc1ccc(Nc2nnc(SCC(=O)Nc3ccc(-c4cn5ccccc5n4)cc3)s2)cc1` [8e, 2-[(5-(4-Methylphenyl)amino-1,3,4-thiadiazol-2-yl)thio]-N-[4-(imidazo[1,2-a]pyridin-2-yl)phenyl]acetamide], the melting point is 130.1 °C. Moreover, the α-GLY inhibition type result in series [2] is given as “competitive inhibition”.

As to `O=C(CSc1nnc(Nc2ccc(Cl)cc2)s1)Nc1ccc(-c2cn3ccccc3n2)cc1` [8f, 2-[(5-(4-Chlorophenyl)amino-1,3,4-thiadiazol-2-yl)thio]-N-[4-(imidazo[1,2-a]pyridin-2-yl)phenyl]acetamide], the melting point came to 265 °C. This compound yielded an IC50 in series [3] of 142 µM.

On to `O=C(CSc1nnc(Nc2cccc(Cl)c2)s1)Nc1ccc(-c2cn3ccccc3n2)cc1` [8g, 2-[(5-(3-Chlorophenyl)amino-1,3,4-thiadiazol-2-yl)thio]-N-[4-(imidazo[1,2-a]pyridin-2-yl)phenyl]acetamide], for which the melting point is 199.2 °C. Further, half-maximal inhibition in series [3] (IC50) was put at 132 µM.

`COc1cccc(Nc2nnc(SCC(=O)Nc3ccc(-c4cn5ccccc5n4)cc3)s2)c1` [8h, 2-[(5-(3-Methoxyphenyl)amino-1,3,4-thiadiazol-2-yl)thio]-N-[4-(imidazo[1,2-a]pyridin-2-yl)phenyl]acetamide] gave a melting point of 138.8 °C. This compound returned an IC50 in series [3] of 143 µM.

For `COc1ccccc1Nc1nnc(SCC(=O)Nc2ccc(-c3cn4ccccc4n3)cc2)s1` [8i, 2-[(5-(2-Methoxyphenyl)amino-1,3,4-thiadiazol-2-yl)thio]-N-[4-(imidazo[1,2-a]pyridin-2-yl)phenyl]acetamide], the melting point was 104.9 °C. In series [3], this compound came in with an IC50 of 154 µM.

Regarding `O=C(CSc1nnc(Nc2ccccc2Cl)s1)Nc1ccc(-c2cn3ccccc3n2)cc1` [8j, 2-[(5-(2-Chlorophenyl)amino-1,3,4-thiadiazol-2-yl)thio]-N-[4-(imidazo[1,2-a]pyridin-2-yl)phenyl]acetamide], the melting point came out at 129 °C. The compound also registered an IC50 in series [3] of 81.1 µM.

`COc1ccc(Nc2nnc(SCC(=O)Nc3ccc(-c4cn5ccccc5n4)cc3)s2)cc1` [8k, 2-[(5-(4-Methoxyphenyl)amino-1,3,4-thiadiazol-2-yl)thio]-N-[4-(imidazo[1,2-a]pyridin-2-yl)phenyl]acetamide] had a melting point of 216.5 °C. The same compound had a concentration for half-maximal inhibition (IC50) in series [3] of 113 µM.
